Where two headings read alike, the source gives them in different places.
How the values were obtained:
P. falciparum 3D7-luc = test: Parasite growth inhibition, luciferase-expressing strain 3D7-luc; assay type: cell-based, Plasmodium falciparum; conditions: for IC50: read-out: IC50s for 3D7 growth
rat PRMT1 (rPRMT1) = conditions: cited from earlier work
[1] = molecular target: T1, recombinant PfPRMT1 (MBP-PfPRMT1) (Plasmodium falciparum, UniProt Q8ILK1); test: Inhibition of recombinant PfPRMT1 methylation activity; assay type: biochemical; conditions: chaetocin: in the lower micromolar concentration
T1 sequence (Q8ILK1 1-401): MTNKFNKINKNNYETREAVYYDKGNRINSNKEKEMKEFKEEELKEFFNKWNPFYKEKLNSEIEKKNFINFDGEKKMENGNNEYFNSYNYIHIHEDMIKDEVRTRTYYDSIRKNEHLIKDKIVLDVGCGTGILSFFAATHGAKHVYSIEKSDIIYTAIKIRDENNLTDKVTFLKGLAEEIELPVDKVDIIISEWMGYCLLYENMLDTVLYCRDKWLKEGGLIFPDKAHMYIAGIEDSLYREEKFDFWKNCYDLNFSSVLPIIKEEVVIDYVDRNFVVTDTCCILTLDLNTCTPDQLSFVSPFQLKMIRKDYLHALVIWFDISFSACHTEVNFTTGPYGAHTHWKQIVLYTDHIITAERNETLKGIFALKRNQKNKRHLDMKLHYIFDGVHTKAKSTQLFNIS

[2] = late ring-stage parasites, 48 h, 37°C, 2% parasitemia, 2% hematocrit
[3] = Plasmodium falciparum, 3D7, 48 h

Structure (SMILES) | Inhibition of PfPRMT1 (in words) [1] | IC50 (P. falciparum 3D7-luc; [3]) | further results
CSC[C@H]1O[C@@H](n2cnc3c(N)ncnc32)[C@H](O)[C@@H]1O [5-Deoxy-5-methylthioadenosine (MTA), 5-Deoxy-5-methylthioadenosine] |  |  | IC50 (P. falciparum 3D7-luc; [2]): > 100 µM
C[S+](CC[C@H](N)C(=O)[O-])C[C@H]1O[C@@H](n2cnc3c(N)ncnc32)[C@H](O)[C@@H]1O (stereo partly drawn) [AdoMet, S-adenosylmethionine] |  |  | Km (rat PRMT1 (rPRMT1); read-out: Km, rPRMT1, ref [31]): 2.52 ± 0.54 µM; kcat, rPRMT1 (rat PRMT1 (rPRMT1); ref [31]): 0.014 ± 0.0005 s⁻¹
CN1C(=O)[C@@]23C[C@]4([C@]56C[C@@]78SS[C@@](CO)(C(=O)N7[C@H]5Nc5ccccc56)N(C)C8=O)c5ccccc5N[C@@H]4N2C(=O)[C@]1(CO)SS3 [Chaetocin] | no obvious inhibition | 14 ± 1.56 µM | 
O=C1OC2(c3ccccc31)c1cc(Br)c(O)c(Br)c1Oc1c2cc(Br)c(O)c1Br [Eosin Y (AMI-5), Eosin Y] | strong inhibitory activity | 14.8 ± 1.01 µM | 
Nc1ncnc2c1ncn2[C@@H]1O[C@H](C[C@@H](N)CC[C@H](N)C(=O)O)[C@@H](O)[C@H]1O [Sinefungin] |  | 2.71 ± 0.04 µM | IC50s for 3D7 growth (P. falciparum 3D7-luc; [2]): lower micromolar

— publication PMC8815339 (The Biochemical journal, 2009)
